From patent publication US20100004247A1, “COMBINATION COMPRISING A MEK INHIBITOR AND AN AURORA KINASE INHIBITOR 188” (AstraZeneca AB, priority 2007, published 2010)

Legend:
[1] = Pro-drug conversion to active moiety in human plasma; type: in vitro ADME
[2] = tested on: Calu-6 human lung tumour xenografts; assay: In vivo combination study in the Calu-6 human lung cancer xenograft model (tumour growth inhibition); parameters: species or system female athymic mice (Swiss nu/nu genotype); settings: Day 35; AZD1152 150 mg/kg/day s.c. infusion 2 days; AZD6244 25 mg/kg twice daily oral 14 days; 24 h gap in sequences
Protocol: To establish the in vivo efficacy of combination therapy of AZD1152 and AZD6244 in Calu-6 human lung xenograft model, experiments were conducted in female athymic mice (Swiss nu/nu genotype, ≧6 weeks of age). Calu-6 human lung tumour xenografts were established in mice by injecting 1×10^6 cells (100 μl volume containing 50% Matrigel®) subcutaneously in the dorsal flank. Tumour volumes were assessed using bilateral Vernier calliper measurement at least twice weekly and calculated using the formula (length×width)×√(length×width)×(π/6), where length was taken to be the longest diameter across the tumour and width the corresponding perpendicular. Mice were randomised into 4 treatment groups (10 mice/group) when the mean tumour volume reached approximately 0.2 cm^3. Following randomisation, mice were treated with drug vehicles for AZD1152 or AZD6244, AZD1152, AZD6244 or a combination of AZD1152 plus AZD6244 according to treatment schedules described below: […]
Tumour growth inhibition was assessed by comparison of the differences in tumour volume between control and treated groups on Day 35 of the study. The effects of combination treatment sequence were assessed by comparing any effect on tumour growth in the group of animals receiving AZD1152 and AZD6244 with tumour growth in the groups where animals received single agent therapy alone. […]

| conversion of pro-drug to the active moiety AZD1152 HQPA [1] | SMILES | growth inhibition of Calu-6 tumours compared to the vehicle-dosed group [2] [%] |
| --- | --- | --- |
| rapidly and completely converted | CCN(CCCOc1ccc2c(Nc3cc(CC(=O)Nc4cccc(F)c4)n[nH]3)ncnc2c1)CCOP(=O)(O)O [AZD1152, 2-{[3-({4-[(5-{2-[(3-fluorophenyl)amino]-2-oxoethyl}-1H-pyrazol-3-yl)amino]quinazolin-7-yl}oxy)propyl](ethyl)amino}ethyl dihydrogen phosphate] | 94.7 |
|  | Cn1cnc2c(F)c(Nc3ccc(Br)cc3Cl)c(C(=O)NOCCO)cc21 [AZD6244, 6-(4-Bromo-2-chloro-phenylamino)-7-fluoro-3-methyl-3H-benzoimidazole-5-carboxylic acid (2-hydroxy-ethoxy)-amide] | 57.8 |
